Measured values as given in article PMC4704819, “Honey Bee Allatostatins Target Galanin/Somatostatin-Like Receptors and Modulate Learning: A Conserved Function?” (PLoS ONE, 2016).
Entries after “also recorded” stand apart in the source; their conditions may differ. Where a SMILES comes first, the peptide text is derived from it. Bridges are numbered along the chain shown (N, C = ends).

Legend:
Apime-ASTA-R = target: T1, Apime-ASTA-R (Apis mellifera, UniProt A0A7M7ILT1); assay: Intracellular calcium measurement, HEK293 cells expressing Apime-ASTA-R with Gαqi9 chimeric G protein; type: cell-based; settings: HEK293 with Gαqi9, Fig 4D
T1 sequence (A0A7M7ILT1 1-361): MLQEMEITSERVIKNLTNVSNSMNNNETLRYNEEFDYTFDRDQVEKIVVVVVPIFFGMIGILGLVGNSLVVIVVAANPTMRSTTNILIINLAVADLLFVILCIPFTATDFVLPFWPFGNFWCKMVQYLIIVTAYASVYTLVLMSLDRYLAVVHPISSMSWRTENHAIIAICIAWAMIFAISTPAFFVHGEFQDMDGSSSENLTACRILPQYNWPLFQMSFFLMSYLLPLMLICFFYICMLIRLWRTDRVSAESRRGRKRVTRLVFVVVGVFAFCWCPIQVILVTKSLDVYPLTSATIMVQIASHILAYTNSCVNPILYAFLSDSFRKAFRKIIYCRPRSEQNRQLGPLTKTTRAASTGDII
Method: This vector contains an ATG initiation codon in phase with a mammalian signal peptide sequence of metabotropic glutamate receptor 5 to address receptor protein to the cell membrane, with a hemagglutinin sequence (TAG HA), and MluI and HindIII restriction sites used for cloning. The coding regions of the genes of interest were PCR amplified from cDNA template. After extraction from whole brains, 1 μg of total RNA was reverse-transcribed with random primers. […] PCR reactions included: 30s at 98°C, then 30 cycles of 10s at 98°C, 30s at 60°C, 1 min at 72°C and finally, 5 minutes at 72°C. Cloning required several amplification and digestion steps to insert the full cDNA sequences in the vector.
In all cases, 2 μg of plasmid DNA encoding the Gαqi9 chimeric G protein was included to enable artificial coupling of the receptors to phospholipase C. Electroporation (250 V, 800 μF, Biorad GenePulser X-cell) was performed in a total volume of 300 μl of electroporation buffer (50 mM K2HPO4, 20 mM CH3COOK, 20 mM KOH, 26.5 mM MgSO4, pH 7.4). After electroporation, cells were resuspended in 10 ml of culture medium and split (100 μl/well) into polyornithine-coated (Sigma #P3655), black-walled, clear bottom 96-well plates (Greiner bio-one #655090) and grown for a further 48 h prior to analyzing receptor properties. All products used for cell culture were purchased from Invitrogen Life Technologies.
Cells were washed with freshly prepared 20 mM Hepes, 1 mM MgSO4, 3.3 mM Na2CO3, 1.3 mM CaCl2, 0.1% BSA, 2.5 mM probenecid in 1X Hank's balanced salt solution (Gibco #14185), pH7.4 buffer and loaded with 1 μM Ca^2+-sensitive fluorescent dye Fluo-4 AM (Invitrogen # F14202) for 1 h at 37°C. Cells were washed once and incubated with 50 μl of buffer. A plate was prepared with the various concentrations of peptides to be tested, and 50 μl of 2X concentrated-drug solution was added in each well after 20 s of recording. Fluorescence signals (excitation 485 nm, emission 525 nm) were measured by using the fluorescence microplate reader Flexstation (Molecular Devices) at sampling intervals of 1.5 s for 60 s. All represented data correspond to means ± standard deviation (SD) from experiments performed in triplicate.
This method allows detecting ligand-induced activation of the receptor by measuring the release of intracellular calcium.

[1] = test system: mock-transfected HEK293 cells; assay: Intracellular cAMP reporter assay, mock-transfected HEK293 cells (empty vector); type: cell-based, human; settings: CRE-luciferase, IBMX, ASTCC Fig 5F, ASTA and ASTC data not shown
Method: For intracellular cAMP measurements, cells were bathed in trypsin EDTA and collected, then suspended in fresh DMEM. Transfections with pRK5-ApimeAstC-R, pRK5-ApimeAstA-R or empty pRK5 vector were carried out in 15 ml Falcon tubes. Transfection medium for HEK293 cells was prepared using the Lipofectamine LTX kit (Invitrogen) with 2.5 ml Opti-MEM® (Gibco), 12.5 μl Plus™ Reagent and 4 μg of ApimeASTC-R (or ApimeASTA-R, or empty) expression construct, and 2 μg of CRE(6x)-Luc plasmid. The luciferase ORF, downstream of six tandem repeats of a cyclic AMP responsive element (CRE), in front of a minimum collate promoter, was used as a reporter gene (this reporter plasmid has been used by others)
We followed a previousy published protocol: HEK293 cells in Dulbecco's Modified Eagles Medium nutrient mixture F12-Ham (DMEM/F12, Sigma–Aldrich) supplemented with 10% heat-inactivated fetal bovine serum (Gibco), 100 IU/ml penicillin, 100 μg/ml streptomycin (Gibco) were maintained in an incubator at 37°C with constant supply of 5% CO2, until they reached 60–80% confluence. Cells were then bathed in trypsin EDTA (Gibco) until rounded. The flask was then tapped to loosen the cells, which were subsequently washed off with 5 ml DMEM/F12. The cells were gently centrifuged at 800 rpm for 5 minutes and carefully suspended in fresh DMEM, which was divided in two for transfection with receptor constructs or empty vectors. After 5 min at room temperature, 30 μl LTX was added. After an incubation period of 30 min at room temperature, the DNA/LTX mix was added to the cells. The cells were then aliquoted (100 μl per well) into a clear bottom 96-well plate (Greiner bio-one #655090) and incubated overnight (37°C, 5% CO2).
Prior to measuring cAMP, the cell medium was removed by carefully inverting the 96-well plate on filter paper and quickly replaced with 100 μl of DMEM/F12 without phenol red (Invitrogen), but containing 200 μM 3-isobutyl-1-methylxanthine (IBMX, Sigma–Aldrich) to prevent cAMP breakdown, as well as drugs to be tested. In each experiment, some wells were used to measure basal levels of cAMP in the cells (negative control), while others were used to measure cAMP levels in cells exposed to 10 μM forskolin analogue (NKH-477, Sigma Aldrich, positive control). […] All cells were incubated at 37°C and 5% CO2 for 3–4 h to allow transcription of the reporter gene before 100 μl of freshly reconstituted Steadylite Plus™ substrate (PerkinElmer) was added to each well. The 96-well plate was then placed in the dark for 15 min before light emission resulting from luciferase enzymatic activity was recorded. Measurements lasting 0.2 s/well were taken every 55 s for 10 cycles using a FLUOstar Omega microplate reader (BMG Labtech). Results were analyzed by means of the Omega software packages and further processed by Excel and GraphPad Prism softwares. In order to facilitate comparisons across experiments, bioluminescence levels are expressed relative to those in mock-transfected cells (transfected with the vector devoid of the receptor sequence) untreated with NKH-477, which were arbitrarily set at 100.
To test this prediction, we expressed the two receptors separately in HEK293 cells together with the luciferase reporter gene, downstream of the cAMP response element, CRE, but without exogenous G proteins.

Structure (SMILES) | receptor activation (calcium), in words (Apime-ASTA-R) | effect on cAMP levels (bioluminescence) in mock-transfected cells, in words [1] | effect on cAMP levels (bioluminescence) in mock-transfected cells, in words ([1]; listed as ASTCC) | effect on cAMP levels (bioluminescence) in mock-transfected cells, in words ([1]; listed as ASTC)
CC(C)[C@@H]1NC(=O)[C@H](C)NC(=O)[C@H](CC(N)=O)NC(=O)[C@H](Cc2ccccc2)NC(=O)[C@H](Cc2ccc(O)cc2)NC(=O)[C@@H](NC(=O)[C@H](CCCNC(=N)N)NC(=O)[C@H](Cc2c[nH]c3ccccc23)NC(=O)[C@H](Cc2ccc(O)cc2)NC(=O)[C@@H](NC(=O)[C@H](CCCNC(=N)N)NC(=O)CNC(=O)[C@H](CCCCN)NC(=O)[C@H](C)NC(=O)[C@H](CCC(N)=O)NC(=O)CN)C(C)C)CSSC[C@@H](C(=O)N[C@@H](Cc2ccccc2)C(=O)O)NC(=O)[C@H]([C@@H](C)O)NC1=O [Apime-ASTCC] (H-GQAKGRVYWRCYFNAVTCF-OH; disulfide 11-18; N-terminus assumed) | not activated by either ASTC or ASTCC | dose-dependent response; also recorded: a similar response to this peptide was apparent also in mock-transfected cells | this occurred also in mock-transfected cells | –
CC(C)[C@@H]1NC(=O)[C@H](C)NC(=O)[C@H](CC(N)=O)NC(=O)[C@H](Cc2ccccc2)NC(=O)[C@H](C)NC(=O)[C@@H](NC(=O)[C@H](CCC(N)=O)NC(=O)[C@H](CCCCN)NC(=O)[C@H](Cc2c[nH]c3ccccc23)NC(=O)[C@H](Cc2ccc(O)cc2)NC(=O)[C@@H](N)CO)CSSC[C@@H](C(=O)N[C@@H](Cc2ccccc2)C(N)=O)NC(=O)[C@H](CO)NC1=O [Apime-ASTC] (H-SYWKQCAFNAVSCF-NH2; disulfide 6-13; N-terminus assumed) | not activated by either ASTC or ASTCC | No effect | – | failed to increase intracellular cAMP levels
